Results: patent publication US7348017B2, “Dithiazole compounds, matrix metalloprotease inhibitors and external preparations for the skin” (Shiseido Co., Ltd., priority 2001, dated 2008)

Molecular target: T1, MMP-9 (crude enzyme solution derived from a mouse skin) (Mus musculus, UniProt P41245)
T1 construct: crude enzyme solution derived from a mouse skin; from tissue; host or cells: mouse skin
Test: Gelatinase group MMPs inhibition test (gelatin zymography)
Format: biochemical
Set-up: key: ⊚: The band disappeared.; ◯: The band was slightly confirmed.; Δ: The band became narrower than control.; ×: Unchanged
Conditions: sample solution 100 μM; gel incubated overnight; size of MMP-9 band compared with control solution
Method: A test material was dissolved in dimethyl sulfoxide (DMSO) to the concentration of 10 mM, to prepare a stock solution. The stock solution was diluted with a measuring buffer (0.05M tris at pH 7.5 containing 0.2M NaCl and 5 mM CaCl2) to adjust the concentration to 100 μM, which was used as a sample solution. As a control solution, a solution containing no test material was similarly prepared.
(b) Gelatinase Group MMPs Inhibition Test
As a gelatinase group enzyme, MMP-9 (crude enzyme solution derived from a mouse skin) was used. The test was performed according to a gelatin zymography method (“Bio-antioxidant provitamin C”, Nobuhiko Miwa ed., p.76, 1999, Fragrance Journal, Tokyo).
That is, a gel containing gelatin in which a predetermined amount of the crude enzyme solution had been subjected to electrophoresis in advance, was incubated overnight with a sample solution or a control solution. After the gel was stained, the appearing band corresponding to MMP-9 was evaluated by a decrease when its size compared with that of a band of control solution. Evaluation criteria was as follows: • ⊚: The band disappeared. • ◯: The band was slightly confirmed. • Δ: The band became narrower than control. • ×: Unchanged.

T1 sequence (P41245 108-730): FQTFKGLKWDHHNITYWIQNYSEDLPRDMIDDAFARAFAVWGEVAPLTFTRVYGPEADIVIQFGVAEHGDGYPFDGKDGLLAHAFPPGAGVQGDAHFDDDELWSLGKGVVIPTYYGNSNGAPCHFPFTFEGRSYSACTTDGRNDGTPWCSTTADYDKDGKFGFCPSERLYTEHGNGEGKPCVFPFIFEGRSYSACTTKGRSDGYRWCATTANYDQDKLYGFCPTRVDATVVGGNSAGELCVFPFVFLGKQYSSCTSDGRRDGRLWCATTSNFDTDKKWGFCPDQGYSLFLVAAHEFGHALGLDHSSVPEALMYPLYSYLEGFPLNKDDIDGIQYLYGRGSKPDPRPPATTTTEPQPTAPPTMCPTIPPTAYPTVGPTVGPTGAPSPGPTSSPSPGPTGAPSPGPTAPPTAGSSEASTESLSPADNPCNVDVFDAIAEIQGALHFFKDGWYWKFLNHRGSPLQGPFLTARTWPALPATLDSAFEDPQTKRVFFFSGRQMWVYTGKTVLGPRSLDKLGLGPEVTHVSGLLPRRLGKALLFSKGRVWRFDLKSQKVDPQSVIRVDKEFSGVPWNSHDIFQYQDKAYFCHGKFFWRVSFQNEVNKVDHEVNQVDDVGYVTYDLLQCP

Compound | MMPs Inhibition
COc1ccc(S(=O)(=O)N(CC(=O)Nc2nc(=S)ss2)Cc2ccccc2)cc1 [Compound 1, 2-{Benzyl[(4-methoxyphenyl)sulfonyl]amino}-N-(3-thioxo-3H-1,2,4-dithiazol-5-yl) acetoamide] | ◯
CC(C)=CCC/C(C)=C/COc1ccc(CC(=O)Nc2nc(=S)ss2)cc1 [Compound 2, 2-{4-[(3,7-Dimethyl-2,6-octadienyl)oxy]phenyl}-N-(3-thioxo-3H-1,2,4-dithiazol-5-yl)acetoamide] | ◯
O=C(Cc1ccc(OCc2ccc(F)cc2)cc1)Nc1nc(=S)ss1 [Compound 5, 2-{4-[(4-Fluorobenzyl)oxy]phenyl}-N-(3-thioxo-3H-1,2,4-dithiazol-5-yl)acetoamide] | ◯
O=C(Cc1ccccc1OCc1ccc(F)cc1)Nc1nc(=S)ss1 [Compound 7, 2-{2-[(4-Fluorobenzyl)oxy]phenyl}-N-(3-thioxo-3H-1,2,4-dithiazol-5-yl)acetoamide] | ◯
O=C(Cc1cccc(OCc2ccc(F)cc2)c1)Nc1nc(=S)ss1 [Compound 8, 2-{3-[(4-Fluorobenzyl)oxy]phenyl}-N-(3-thioxo-3H-1,2,4-dithiazol-5-yl)acetoamide] | ◯
O=C(Cc1cc(OCc2ccc(F)cc2)cc(OCc2ccc(F)cc2)c1)Nc1nc(=S)ss1 [Compound 9, 2-{3,5-Bis[(4-fluorobenzyl)oxy]phenyl}-N-(3-thioxo-3H-1,2,4-dithiazol-5-yl)acetoamide] | ◯
CC(C)C(C(=O)Nc1nc(=S)ss1)c1ccc(OCc2ccc(F)cc2)cc1 (stereo not shown) [Compound 12, 2-{4-[(4-Fluorobenzyl)oxy]phenyl}-3-methyl-N-(3-thioxo-3H-1,2,4-dithiazol-5-yl)butanamide] | ⊚
